The record followed here is patent US11642320B2, “Nanoparticulate prodrugs” (priority 2016, dated 2023).

SMILES strings stand for the structures.

The nature of series [1]: Pharmacokinetics in plasma after intravenous injection. As to conditions: male, DBA/lOlaHsd, mouse, in vivo, 12 mg/kg. Also noted: species or system mice. The method, then:
Nanoparticles were prepared by emulsion-evaporation as described above and were diluted in PBS to obtain a final concentration of 2.5 mg/ml DXP, which corresponds to 1.55 mg/ml dexamethasone base. […] DXM. DBA/lOlaHsd male mice aged of 9 weeks (Envigo) were divided into two groups. One received the nanoparticle suspension and the other received the control, administration was carried out by intravenous injection in the tail vein at 12 mg/kg eq. DXM. For each group, 11 pharmacokinetic time points were performed with 7 mice per point, from 10 min to 48 hours. Blood sampling was achieved by terminal cardiac puncture using a 25G needle while mice were previously anesthetized with a lethal dose of pentobarbital. Immediately after, blood was centrifuged to recover plasma which was stored at −80° C. For every time point, 5 mice out of 7 underwent organs sampling after cardiac puncture. Liver, spleen, kidneys and lungs were removed and stored at −80° C.
To achieve quantification of DXM and DXP in plasma, an extraction process was developed. 100 μl of plasma samples were introduced into centrifugation tubes and 100 μl of the internal standart at 4 μg/ml in acetonitrile was added and vortexed during 30 seconds. 3 ml of a mixture chloroform/methanol: 9/1 (v/v) was added and tubes were vortexed vigorously 3 minutes. Centrifugation were performed at 3500 rpm, 30 min. Organic phase was recovered and evaporated using an evaporator under gas flow. Dried molecules were dissolved in 200 μl acetonitrile and this sample was analyzed by HPLC-UV. Calibration curves of DXP and DXM were linear, respectively in the range 0.5-100 μg/ml (R^2=0.9997, y=0.2199x−0.0165) and 0.1-100 μg/ml (R^2=0.9974, y=1.056x+0.1445). Regarding short time points (10 min, 20 min, 40 min), DXP and DXM concentrations were above the linearity range of the calibration curve. A second calibration curve for each molecule was set up, beginning with 50 μl plasma completed to 100 μl with milliQ water. Following stages were the same than previously described. Calibration curves “50 μl plasma” of DXP and DXM were linear, respectively in the range 50-800 μg/ml (R^2=0.9808, y=0.2229x−3.2128) and 20-400 μg/ml (R^2=0.9986, y=0.7178x−0.059). Internal standard was testosterone decanoate for DXP and dexamethasone acetate for DXM quantification.

Another series deals with IL-6. Description: Cytokine release from LPS-treated macrophages: IL-6. The format is cell-based, mouse. The following applies: RAW 264.7, LPS 0.1 μg/mL, 24 hours. The method, then: (§1) For the cytokine release experiment, the RAW 264.7 cells were seeded in 24-well plates at a cellular density of 4×10^4 cells/well in culture medium and they were left in the incubator for 48 hours to reach 80% confluency. Then, the medium was replaced by fresh medium alone or fresh medium with LPS at 0.1 μg/mL, and the plates were incubated another 3 hours. Afterwards, the “standard” nanoparticles produced by emulsification-solvent evaporation at three concentrations: 1, 10 and 100 μg/mL of DXP and free dexamethasone phosphate at 82 μg/ml, which correspond to 100 μg/ml DXP considering molecular weight ratio, were added to some wells. Culture medium alone was used as negative control and LPS 0.1 μg/mL as positive control.
(§2) After 24 hours of incubation with the treatments, the supernatants were collected and frozen at −20° C. until the analysis was performed. The cells were detached and counted.
(§3) The mouse inflammatory cytokines TNFα, MCP-1, IL-10 and IL-6 were quantified using a Cytometric Beads Array (CBA) detection kit (BD Biosciences, USA). This study was performed in triplicate.

In series [2] the test system is pro-inflammatory cytokine release, raw264.7 cells. In words: Control cytokine release assay without LPS treatment. The format is cell-based, mouse. The following applies: raw264.7 cells without any LPS treatment. The method, then:
as §3
This confirms that the developed nanoparticles are suitable for anti-inflammatory treatment as expected.

For the next series, the system named is TNFα. In words: Cytokine release from LPS-treated macrophages: TNFα. The following applies: RAW 264.7, LPS 0.1 μg/mL, 24 hours; 100 μg/ml DXP or same equivalent concentration (82 μg/ml dexamethasone phosphate). The format is cell-based, mouse. The method, then: as §1, §2, §3

For orientation: Cmax means the maximum level reached in the sampled fluid or tissue. A word on the MRT: it is a mean duration of stay, worked out from the concentration-time curve. A word on the Tmax: it is the time from dosing to the highest level. A word on the Vd: it is the apparent volume that relates the amount in the body to the concentration in plasma or blood. In series [1], `C[C@@H]1C[C@H]2[C@@H]3CCC4=CC(=O)C=C[C@]4(C)[C@@]3(F)[C@@H](O)C[C@]2(C)[C@@]1(O)C(=O)COP(=O)(O)O` [DSP, dexamethasone sodium phosphate] registered an AUC0→t of 18755 µg·min/mL, a C0 of 22400 ng/mL, a Clearance of 0.0046 mL/min and a Cmax of 22100 ng/mL. For the same compound, in series [1], the MRT was found to be 45 h, the Tmax stood at 0.167 h, the Vd is 12.50 mL and the “plateau of DXM in plasma” value is reported as “around 10 % of the injected dose”. Moreover, in series [1], the t1/2 was 28.8 h. Also, in the series with IL-6, the IL-6 release result is given as “No significant reduction”. Moreover, in series [2], the “induction of pro-inflammatory cytokine release” value is recorded as “neither DXP nanoparticles nor free drug induce pro-inflammatory cytokine release”. Also, in the series on TNFα, the TNFα release entry is “no effect detected”.
